Laboratory results published in patent US20150051202A1, “TRIAZOLOPYRAZINE DERIVATIVES” (Merck Patent GmbH, priority 2012, published 2015).
One block for each compound: values may come before it.

How the values were obtained:
GCN2 = GCN2 (Homo sapiens, UniProt Q9P2K8); test: GCN2 enzyme assay (TR-FRET Lanthascreen, GFP-eIF2alpha substrate); assay type: biochemical; details: for GCN2 (enzyme assay) % at 10 μM: 100% corresponds to zero effect, −50% corresponds to IC50
Excerpt: GCN2: Assay Principle & Conditions
This assay can quantificate the activity of the serin kinase GCN2 (general control non-derepressible-2).
This kinase is involved in the stress metabolism of cells. It is activated upon starvation (amino acid depletion). Its natural substrate is eIF2a (eukaryotic initiation factor 2 alpha subunit), a translation factor, which gets activated (phosphorylated) by GCN2 in case of an amino acid bottleneck in the cells. This in turn leads to a halt of the protein synthesis. Inhibition of GCN2 results in stopping this mechanism: The cell can not stop protein production upon “starvation” stress.
The assay is run in two steps: the enzymatic reaction and the detection step. In the first step GCN2 is incubated with 10 μM ATP and 80 nM of the GFP-labelled substrate eIF2alpha at room temperature.
The enzymatic reaction is stopped by addition of EDTA. The amount of phosphorylated eIF2alpha is determined by TR-FRET (Lanthascreen): A complex is formed consisting of antibody and GFP labelled phospho-eIF2a, which allows a FRET upon exitation at 340 nm.
Final Concentrations in the Enzymatic Reaction • Hepes, pH 7.0 50 mM • MgCl2 10 mM • MnCl2 5 mM • BSA 0.1% • DMSO 1% • ATP 10 uM • DTT 2 mM • GFP-eIF2a 80 nM (substrate) • GCN2 30 nM (enzyme)

SYK = biological target: T1, SYK (Homo sapiens, UniProt P43405); test: SYK enzyme assay (Flash plate assay / Caliper mobility shift assay); assay type: biochemical
T1 construct: purchased BPS Bioscience, CA, USA
Procedure: The kinase assay is performed either as 384-well Flashplate assay (for e.g. Topcount measurement) or as 384-well Image-Flashplate assay (for LEADseeker measurement).
2.5 nM SYK, 400 nM Biotin-Aha-Aha-[…]
and 10 μM ATP (spiked with 0.3 μCi 33P-ATP/well) are incubated in a total volume of 50 μl (60 mM Hepes, 10 mM MgCl2, 1.2 mM Dithiothreitol, 0.02% Brij35, 0.1% BSA, pH 7.5) with or without test compound for 1 hours at 30° C. The reaction is stopped with 25 μl 200 mM EDTA. After 30 Min at 30° C. the liquid is removed and each well washed thrice with 100 μl 0.9% sodium chloride solution. Non-specific reaction is determined in presence of 0.1 μM Staurosporine. Radioactivity is measured with Topcount (when using Flashplates) or with LEADseeker (when using Image-Flashplates) respectively. Results (e.g. IC50-values) are calculated with program tools provided by the IT-department (e.g. Symyx Assay Explorer, Genedata Screener).
Enzymatic Assays Using the Caliper LifeSciences Technology
The assays described here are performed on the Caliper Life Sciences LC3000 system This technology provides data on enzyme activity via measurement of the relative amounts of phosphorylated or unphosphorylated fluorescently labelled substrate peptide at the end of an enzymatic reaction.
These different states of peptide are resolved by applying a potential difference across the sample. The presence of the charged phosphate group on the product (as opposed to the substrate) causes a different peptide mobility between the two peptides. This is visualized by excitation of the fluorescent label on the substrate and product peptides and represented as peaks within the analysis software.
In order to measure inhibitor activity of kinase inhibitors on this technology, a TTP Mosquito liquid handling instrument is used to place 0.25 ul of the appropriate concentration of inhibitor in 100% DMSO (for a dose response curve calculation) into each well of a 384-well plate. To this reaction components are added to a final volume of 25 ul. The table below indicates the sequences and concentrations for the assays described in this report. Standard components are 1 mM DTT (Sigma, D0632), 1 mM MgCl2 (Sigma, M1028), 100 mM HEPES pH 7.5 (Calbiochem, 391338), 0.015% Brij-35 (Sigma, B4184).
The reaction is incubated for 90 min at 25 C, and then stopped by the addition of 70 ul of Stop buffer (100 mM HEPES pH 7.5, 0.015% Brij-35, 10 mM EDTA (Sigma, E7889)).
The plate is read on a Caliper LC 3000 in an Off-Chip mobility shift assay format, on a 12-sipper chip. Unphosphorylated substrate and phosphorylated product peptide resolve as separate peaks allowing direct measurement of percentage of conversion of substrate to product. The percent conversion can be plotted against concentration of inhibitor to produce a sigmoidal dose response curve, from which an IC50 can be calculated using GeneData Condoseo or a similar product.

[1] = 100% corresponds to zero effect, −50% corresponds to IC50

GCN2, sequence (Q9P2K8 whole entry): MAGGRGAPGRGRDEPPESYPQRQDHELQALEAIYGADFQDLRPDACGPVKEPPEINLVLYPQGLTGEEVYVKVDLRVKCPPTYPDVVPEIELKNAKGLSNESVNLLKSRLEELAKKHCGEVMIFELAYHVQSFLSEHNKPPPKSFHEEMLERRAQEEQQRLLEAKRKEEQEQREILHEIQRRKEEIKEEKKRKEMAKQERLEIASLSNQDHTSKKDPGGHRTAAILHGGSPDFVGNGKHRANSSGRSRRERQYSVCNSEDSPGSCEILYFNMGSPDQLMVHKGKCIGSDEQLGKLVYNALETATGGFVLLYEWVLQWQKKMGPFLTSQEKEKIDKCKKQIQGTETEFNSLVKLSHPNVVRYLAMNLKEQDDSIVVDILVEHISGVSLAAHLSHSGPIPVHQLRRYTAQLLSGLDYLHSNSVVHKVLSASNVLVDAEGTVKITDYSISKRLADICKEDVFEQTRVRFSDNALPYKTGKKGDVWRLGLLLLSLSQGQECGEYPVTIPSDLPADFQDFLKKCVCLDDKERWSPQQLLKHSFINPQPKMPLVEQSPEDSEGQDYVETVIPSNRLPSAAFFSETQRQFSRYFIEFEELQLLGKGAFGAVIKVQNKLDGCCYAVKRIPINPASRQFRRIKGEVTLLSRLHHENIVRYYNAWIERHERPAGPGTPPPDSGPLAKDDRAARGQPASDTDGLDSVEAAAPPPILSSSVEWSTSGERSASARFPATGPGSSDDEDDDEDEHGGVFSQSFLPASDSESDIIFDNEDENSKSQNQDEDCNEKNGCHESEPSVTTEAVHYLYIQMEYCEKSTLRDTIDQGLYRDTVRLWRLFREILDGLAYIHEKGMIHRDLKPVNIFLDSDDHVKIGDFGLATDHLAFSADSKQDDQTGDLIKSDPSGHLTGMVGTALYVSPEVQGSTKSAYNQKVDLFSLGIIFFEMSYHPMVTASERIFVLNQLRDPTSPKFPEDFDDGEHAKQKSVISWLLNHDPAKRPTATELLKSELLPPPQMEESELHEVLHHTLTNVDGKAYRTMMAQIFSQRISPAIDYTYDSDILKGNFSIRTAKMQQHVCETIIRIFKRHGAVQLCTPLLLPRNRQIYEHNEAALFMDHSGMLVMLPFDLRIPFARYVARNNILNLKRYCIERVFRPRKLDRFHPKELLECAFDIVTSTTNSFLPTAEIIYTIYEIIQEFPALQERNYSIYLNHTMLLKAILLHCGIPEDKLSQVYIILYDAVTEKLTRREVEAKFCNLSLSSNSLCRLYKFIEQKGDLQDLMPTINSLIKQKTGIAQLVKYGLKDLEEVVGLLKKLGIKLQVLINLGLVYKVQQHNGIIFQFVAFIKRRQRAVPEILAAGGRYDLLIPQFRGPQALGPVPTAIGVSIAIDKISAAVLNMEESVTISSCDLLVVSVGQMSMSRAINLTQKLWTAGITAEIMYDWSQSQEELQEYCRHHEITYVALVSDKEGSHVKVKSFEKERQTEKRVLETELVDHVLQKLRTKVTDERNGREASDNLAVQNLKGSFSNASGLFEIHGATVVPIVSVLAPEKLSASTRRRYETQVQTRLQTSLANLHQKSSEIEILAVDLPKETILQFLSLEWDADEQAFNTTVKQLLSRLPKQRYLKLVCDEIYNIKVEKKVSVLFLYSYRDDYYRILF

IC50 (GCN2): < 1000 nM | SYK (enzyme assay) % at 3 μM (SYK; [1]): −5@3%
SMILES: c1cc(N2CCOCC2)ccc1Nc1nc2cncc(-c3ccc(CN4CCOCC4)s3)n2n1 [Compound A62, [5-(5-morpholin-4-ylmethyl-thiophen-2-yl)-[1,2,4]triazolo[1,5-a]pyrazin-2-yl]-(4-morpholin-4-yl-phenyl)-amine]

IC50 (GCN2): < 1000 nM | IC50 (SYK): 1000 to 5000 nM
SMILES: Cn1cc(-c2cncc3nc(Nc4ccc(C(=O)N5CCOCC5)cc4)nn23)cn1 [Compound A66, {4-[5-(1-methyl-1H-pyrazol-4-yl)-[1,2,4]triazolo[1,5-a]pyrazin-2-ylamino]-phenyl}-morpholin-4-yl-methanone]

GCN2 (enzyme assay) % at 10 μM (GCN2): −4@10% | IC50 (SYK): 1000 to 5000 nM
SMILES: c1ccc(-c2ccccc2-c2cncc3nc(Nc4ccc(N5CCOCC5)cc4)nn23)cc1 [Compound A36, (5-biphenyl-2-yl-[1,2,4]triazolo[1,5-a]pyrazin-2-yl)-(4-morpholin-4-yl-phenyl)-amine]

IC50 (GCN2): < 1000 nM | IC50 (SYK): 1000 to 5000 nM
SMILES: COc1cc(Nc2nc3cncc(-c4cnn(C)c4)n3n2)ccc1CN1CCOCC1 [Compound A78, (3-methoxy-4-morpholin-4-ylmethyl-phenyl)-[5-(1-methyl-1H-pyrazol-4-yl)-[1,2,4]triazolo[1,5-a]pyrazin-2-yl]-amine]

IC50 (GCN2): < 1000 nM | IC50 (SYK): < 1000 nM
SMILES: Cc1ccc(-c2cncc3nc(Nc4ccc(N5CCOCC5)cc4)nn23)o1 [Compound A55, [5-(5-methyl-furan-2-yl)-[1,2,4]triazolo[1,5-a]pyrazin-2-yl]-(4-morpholin-4-yl-phenyl)-amine]

GCN2 (enzyme assay) % at 10 μM (GCN2): 2@10% | IC50 (SYK): < 1000 nM
SMILES: Cn1cc(-c2c(-c3ccccc3)ncc3nc(Nc4ccc(N5CCOCC5)cc4)nn23)cn1 [Compound A45, [5-(1-methyl-1H-pyrazol-4-yl)-6-phenyl-[1,2,4]triazolo[1,5-a]pyrazin-2-yl]-(4-morpholin-4-yl-phenyl)-amine]

IC50 (GCN2): 1000 to 5000 nM | SYK (enzyme assay) % at 3 μM (SYK; [1]): −19@3%
SMILES: O=C1Cc2cc(Nc3nc4cncc(-c5cnn(CCN6CCOCC6)c5)n4n3)ccc2N1 [Compound A49, 5-{5-[1-(2-morpholin-4-yl-ethyl)-1H-pyrazol-4-yl]-[1,2,4]triazolo[1,5-a]pyrazin-2-ylamino}-1,3-dihydro-indol-2-one]

IC50 (GCN2): < 1000 nM | SYK (enzyme assay) % at 1 μM (SYK; at 1 μM, 100% corresponds to zero effect, −50% corresponds to IC50): −26@1%
SMILES: Cn1cc(-c2cncc3nc(Nc4cccc(N5CCOCC5)c4)nn23)cn1 [Compound A80, [5-(1-methyl-1H-pyrazol-4-yl)-[1,2,4]triazolo[1,5-a]pyrazin-2-yl]-(3-morpholin-4-yl-phenyl)-amine]

IC50 (GCN2): 5000 to 10000 nM | SYK (enzyme assay) % at 3 μM (SYK; [1]): −9@3%
SMILES: COc1cc(N2CCN(C)CC2)ccc1Nc1nc2cncc(-c3cnn(C)c3)n2n1 [Compound A79, [2-methoxy-4-(4-methyl-piperazin-1-yl)-phenyl]-[5-(1-methyl-1H-pyrazol-4-yl)-[1,2,4]triazolo[1,5-a]pyrazin-2-yl]-amine]

IC50 (GCN2): 1000 to 5000 nM | SYK (enzyme assay) % at 3 μM (SYK; [1]): −35@3%
SMILES: c1ccc2ncc(-c3cncc4nc(Nc5ccc(N6CCOCC6)cc5)nn34)cc2c1 [Compound A32, (4-morpholin-4-yl-phenyl)-(5-quinolin-3-yl-[1,2,4]triazolo[1,5-a]pyrazin-2-yl)-amine]

IC50 (GCN2): < 1000 nM | SYK (enzyme assay) % at 3 μM (SYK; [1]): −21@3%
SMILES: COc1cc(Nc2nc3cncc(-c4cnn(CCN5CCOCC5)c4)n3n2)ccc1N1CCN(C)CC1 [Compound A75, [3-methoxy-4-(4-methyl-piperazin-1-yl)-phenyl]-{5-[1-(2-morpholin-4-yl-ethyl)-1H-pyrazol-4-yl]-[1,2,4]triazolo[1,5-a]pyrazin-2-yl}-amine]

The next lines start with the compound.

SMILES: Cc1cc(Nc2nc3cncc(-c4ccc5c(cnn5C)c4)n3n2)ccc1N1CCN(C)CC1 [Compound A4, [5-(1-methyl-1H-indazol-5-yl)-[1,2,4]triazolo[1,5-a]pyrazin-2-yl]-[3-methyl-4-(4-methyl-piperazin-1-yl)-phenyl]-amine]
IC50 (GCN2): < 1000 nM | IC50 (SYK): < 1000 nM

SMILES: Cn1cc(-c2cncc3nc(Nc4ccc5c(c4)NC(=O)C5(C)C)nn23)cn1 [Compound A13, 3,3-dimethyl-6-[5-(1-methyl-1H-pyrazol-4-yl)-[1,2,4]triazolo[1,5-a]pyrazin-2-ylamino]-1,3-dihydro-indol-2-one]
IC50 (GCN2): < 1000 nM | IC50 (SYK): < 1000 nM

SMILES: CN(C)Cc1nc2cc(Nc3nc4cncc(-c5cnn(C)c5)n4n3)ccc2[nH]1 [Compound A14]
IC50 (GCN2): < 1000 nM | IC50 (SYK): 1000 to 5000 nM

SMILES: COc1cc(Nc2nc3cncc(-c4cnn(C)c4)n3n2)ccc1C(=O)NCC1CC1 [Compound A70, N-cyclopropylmethyl-2-methoxy-4-[5-(1-methyl-1H-pyrazol-4-yl)-[1,2,4]triazolo[1,5-a]pyrazin-2-ylamino]-benzamide]
IC50 (GCN2): < 1000 nM | SYK (enzyme assay) % at 0.3 μM (SYK; at 0.3 μM, 100% corresponds to zero effect, −50% corresponds to IC50): −12@0.3%

SMILES: Cn1ncc2cc(-c3cncc4nc(Nc5ccc6c(c5)NC(=O)C6(C)C)nn34)ccc21 [Compound A5, 3,3-dimethyl-6-[5-(1-methyl-1H-indazol-5-yl)-[1,2,4]triazolo[1,5-a]pyrazin-2-ylamino]-1,3-dihydro-indol-2-one]
IC50 (GCN2): 1000 to 5000 nM | IC50 (SYK): < 1000 nM

SMILES: COc1cc(Nc2nc3cncc(-c4cnn(C5CCOCC5)c4)n3n2)ccc1N1CCN(C)CC1 [Compound A77, [3-methoxy-4-(4-methyl-piperazin-1-yl)-phenyl]-{5-[1-(tetrahydro-pyran-4-yl)-1H-pyrazol-4-yl]-[1,2,4]triazolo[1,5-a]pyrazin-2-yl}-amine]
IC50 (GCN2): < 1000 nM | IC50 (SYK): 1000 to 5000 nM

SMILES: CNS(=O)(=O)c1ccc(-c2cncc3nc(Nc4ccc(N5CCN(C)CC5)c(OC)c4)nn23)cc1 [Compound A94, 4-{2-[3-methoxy-4-(4-methyl-piperazin-1-yl)-phenylamino]-[1,2,4]triazolo[1,5-a]pyrazin-5-yl}-N-methyl-benzenesulfonamide]
IC50 (GCN2): < 1000 nM | IC50 (SYK): 1000 to 5000 nM

SMILES: COc1cc(Nc2nc3cncc(-c4ccccc4-c4ccccc4)n3n2)cc(OC)c1 [Compound A37]
GCN2 (enzyme assay) % at 10 μM (GCN2): 3@10% | IC50 (SYK): 1000 to 5000 nM

SMILES: Cc1cc(Nc2nc3cncc(-c4cnn(CCC(C)C)c4)n3n2)ccc1N1CCN(C)CC1 [Compound A51, {5-[1-(3-methyl-butyl)-1H-pyrazol-4-yl]-[1,2,4]triazolo[1,5-a]pyrazin-2-yl}-[3-methyl-4-(4-methyl-piperazin-1-yl)-phenyl]-amine]
IC50 (GCN2): < 1000 nM | IC50 (SYK): < 1000 nM

SMILES: Cn1ncc2cc(-c3cncc4nc(Nc5cccnc5)nn34)ccc21 [Compound A3, [5-(1-methyl-1H-indazol-5-yl)-[1,2,4]triazolo[1,5-a]pyrazin-2-yl]-pyridin-3-yl-amine]
IC50 (GCN2): 1000 to 5000 nM | SYK (enzyme assay) % at 3 μM (SYK; [1]): −9@3%

SMILES: COc1cc(Nc2nc3cncc(-c4cnn(C)c4)n3n2)ccc1NC(C)=O [Compound A85, N-{2-methoxy-4-[5-(1-methyl-1H-pyrazol-4-yl)-[1,2,4]triazolo[1,5-a]pyrazin-2-ylamino]-phenyl}-acetamide]
IC50 (GCN2): < 1000 nM | IC50 (SYK): 1000 to 5000 nM
